How the values were obtained:
[1] = Pharmacokinetic assessment of CLAV run by IVEDCO; conditions: from plasma 2.5 μg/ml and CSF/plasma ratio 0.25
Description: This treatment regimen of three doses each day for two consecutive days was chosen to acclimate the animals to the treatment procedure (day 1) and to achieve steady-state blood concentration before testing (day 2). A pharmacokinetic assessment of CLAV was run by IVEDCO (Irving Tex.) which estimated an oral dose of 1 mg/kg every three hrs would produce steady-state levels yielding an average plasma concentration of 2.5 μg/ml at the time of testing. Since the CSF/plasma ratio is 0.25 the estimated concentration in the brain would be around 0.3 μM. Given the rate of clearance of CLAV, treatments from day 1 should not have contributed to blood levels of drug on day 2.

[2] = tested on: cotton-top tamarin (Saguinus oedipus); assay: Novel object test for anxiolytic activity in cotton-top tamarins; type: in vivo; conditions: oral 1 mg/kg, three doses a day for two days
Description: Eight male/female pairs of tamarins with long standing pair bonds were tested following oral treatments of CLAV and vehicle (VEH) control. There were no offspring since males were vasectomized. Both members of a pair received the same treatments at the same times. Each animal served as its own control being tested both with CLAV or VEH one week apart. The treatment schedule was counter-balanced. CLAV was dissolved in water and dispensed onto a small cookie in a volume of 100 μl. A single CLAV cookie was given to each member of a pair at an approximate dose of 1 mg/kg body weight. Animals were given three CLAV cookies each day for two consecutive days. The 1st cookie was given at 8:00 AM prior to the morning feeding, the 2nd at 11:00 AM prior to the noon feeding and the 3rd at 2:00 PM prior to the late afternoon snack. All animals were scored for anti-anxiety activity 60 min after the 3rd treatment on the second day.
Two observers blind to the treatment independently scored behavioral activity. To elicit anxious/stressful behavior a novel object was placed into the home cage. A different novel object was used for each test session and the object presentation was counter-balanced. Following the presentation of the novel object animals were scored for a duration of 15 min for: 1) latency to approach and latency to touch the object, 2) time spent in contact or proximity with the object, 3) face and head movement (frowns, head shakes and head cocks that reflect tension), 4) scratching (a validated measure of anxiety in macaques), 5) piloerection (autonomic stress response), and 6) visual scanning (nervous vigilance).

monoamine transporters = assay: Binding of CLAV to monoamine transporters
[3] = tested on: well known signaling receptors or transporters; assay: Binding of CLAV to well known signaling receptors or transporters
nucleus accumbens = assay: Microdialysis of extracellular neurotransmitter levels after IP CLAV; type: in vivo, Sprague Dawley rats
Description: To test this hypothesis, extracellular neurotransmitter levels in the area of the nucleus accumbens were assessed with microdialysis following CLAV treatment. The accumbens is part of the limbic forebrain best now for its association with the pathophysiology of schizophrenia and drug addiction but also thought to be involved in sensitization to early life trauma leading to the anxiety disorder PTSD or post traumatic stress disorder ([…] and Bremner 1999). Ten male, Sprague Dawley rats were anesthetized with sodium pentobarbital (50 mg/kg) and implanted with a unilateral microdialysis guide cannula aimed at the nucleus accumbens. Two days after recovery from surgery a microdialysis probe (2 mm) was lowered to the area and connected to an infusion pump through Tygon tubing. The dialysate was artificial CSF at pH 7.4 delivered at a flow rate of 2 μl/min. The first 120 min of dialysate will be discarded. Thereafter, samples were collected at 30 min intervals prior to and following IP CLAV treatment (10 μg/kg). Samples were collected into microfuge tubes containing 5 μl of 0.16 N perchloric acid to stabilize catecholamines. At the end of the study, animals were sacrificed and the brains prepared for histology to verify the site of the microdialysis probe.

monoamine oxidase A = biological target: T1, monoamine oxidase A (Homo sapiens, UniProt P21397); assay: Binding of CLAV to monoamine oxidase A
T1 sequence (P21397 1-527): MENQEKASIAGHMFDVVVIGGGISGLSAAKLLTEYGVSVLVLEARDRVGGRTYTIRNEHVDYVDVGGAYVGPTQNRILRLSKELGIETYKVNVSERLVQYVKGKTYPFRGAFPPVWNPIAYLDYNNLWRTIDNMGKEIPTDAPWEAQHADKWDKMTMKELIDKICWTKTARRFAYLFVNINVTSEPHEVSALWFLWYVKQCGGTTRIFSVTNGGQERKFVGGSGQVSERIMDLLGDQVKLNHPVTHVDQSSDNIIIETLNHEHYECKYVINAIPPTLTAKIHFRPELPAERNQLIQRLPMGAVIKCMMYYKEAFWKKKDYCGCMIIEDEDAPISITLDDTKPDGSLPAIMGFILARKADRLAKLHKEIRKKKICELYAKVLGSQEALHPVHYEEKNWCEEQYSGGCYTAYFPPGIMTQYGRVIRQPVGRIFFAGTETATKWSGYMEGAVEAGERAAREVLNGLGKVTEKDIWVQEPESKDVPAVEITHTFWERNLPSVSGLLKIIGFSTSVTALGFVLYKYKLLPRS

[4] = tested on: cotton-top tamarin (Saguinus oedipus); assay: Scoring of erections, mounts and female solicitations in cotton-top tamarins; type: in vivo; conditions: oral 1 mg/kg
[5] = tested on: prefrontal cortex and nucleus accumbens; conditions: Cartmell et al., 2000b; Hertel et al. 1997; cited from earlier work

O=C(O)[C@H]1/C(=C/CO)O[C@@H]2CC(=O)N21 [CLAV, clavulanic acid]
estimated concentration in the brain [1]: around 0.3 μM
latency to approach the novel object, CLAV vs VEH [2]: no significant difference
latency to touch the novel object, CLAV vs VEH [2]: no significant difference
time spent in proximity to the object, CLAV vs VEH [2]: Neither was there any difference
combined measures of anxious/nervous behaviors (3, 4, 5 & 6) ([2]; scored 15 min, 60 min after 3rd treatment on day 2, p<0.05 vs VEH): 12.7+4.8
binding to monoamine transporters (monoamine transporters): Neither the monoamine transporters nor the degradative enzyme monoamine oxidase A show binding
binding to well known signaling receptors or transporters [3]: does not appear to bind
DOPAC levels (nucleus accumbens; IP 10 μg/kg, AC-1 to AC-5): only rose in two cases
changes in dopamine and serotonin neurotransmission, probe outside the nucleus accumbens (nucleus accumbens; IP 10 μg/kg, lateral ventricle, bed nucleus of stria terminalis, head of the caudate, ventrolateral thalamus): little if any changes
dopamine metabolite 3,4-dihydroxyphenylacetic acid (DOPAC) over time (nucleus accumbens; animal AC-1, IP 10 μg/kg): robust increase
dopamine metabolite homovanillic acid (HVA) over time (nucleus accumbens; animal AC-1, IP 10 μg/kg): robust increase
dopamine over time (nucleus accumbens; animal AC-1, IP 10 μg/kg): modest decrease
extracellular levels of serotonin over time (nucleus accumbens; animal AC-1, IP 10 μg/kg): increase
serotonin metabolite 5-hydroxyindoleacetic acid (HIAA) over time (nucleus accumbens; animal AC-1, IP 10 μg/kg): robust increase
binding to monoamine oxidase A (monoamine oxidase A): Neither the monoamine transporters nor the degradative enzyme monoamine oxidase A show binding
females showing solicitation behaviors ([4]; eight females, three doses a day for two days): Two of the eight
males showing at least one erection in 15 min ([4]; eight males, three doses a day for two days): All eight
mean erections in 15 min ([4]; males, three doses a day for two days): 2.25 erections in 15 min
rate of erections ([4]; males, p<0.02 vs VEH): 9.0 erections per hour
mounting behavior, CLAV vs VEH ([4]; three doses a day for two days): no significant difference

Cc1nc2n(c(=O)c1CCN1CCC(c3noc4cc(F)ccc34)CC1)CCCC2 [risperidone]
dopamine and serotonin neurotransmission in the prefrontal cortex and nucleus accumbens [5]: increase
